The NIST ThermoML archive (doi:10.1021/je060203o)
± gives the expanded uncertainty stated by the source.

Settings: Liquid; for speed of sound: Pulse-echo method; for mass density: Vibrating tube method

CCCCCn1cc[n+](C)c1.O=S(=O)([N-]S(=O)(=O)C(F)(F)F)C(F)(F)F
Settings	mass density [kg/m3]	speed of sound [m/s]
288.15 K, 500 kPa	–	1255.5 ± 3.1
288.15 K, 3500 kPa	–	1266 ± 3.1
288.15 K, 7000 kPa	–	1278.1 ± 3.1
288.15 K, 10000 kPa	–	1288.3 ± 3.1
288.15 K, 13500 kPa	–	1299.9 ± 3.1
288.15 K, 16990 kPa	–	1311.2 ± 3.1
288.15 K, 20000 kPa	–	1320.7 ± 3.1
288.15 K, 30000 kPa	–	1351.7 ± 3.2
288.15 K, 40000 kPa	–	1380.9 ± 3.2
288.15 K, 50000 kPa	–	1409 ± 3.2
288.15 K, 60000 kPa	–	1435.6 ± 3.2
288.15 K, 70000 kPa	–	1461.2 ± 3.2
288.15 K, 80000 kPa	–	1486 ± 3.2
288.15 K, 90000 kPa	–	1509.9 ± 3.2
288.15 K, 100000 kPa	–	1533 ± 3.2
288.15 K, 112500 kPa	–	1560.9 ± 3.2
288.15 K, 125000 kPa	–	1587.9 ± 3.2
288.15 K, 137510 kPa	–	1613.5 ± 3.2
288.15 K, 150000 kPa	–	1637.8 ± 3.2
298.15 K, 100 kPa	1404.45 ± 2.3	–
298.15 K, 500 kPa	–	1232.1 ± 3.1
298.15 K, 1830 kPa	1405.67 ± 2.3	–
298.15 K, 3500 kPa	–	1242.7 ± 3.1
298.15 K, 7000 kPa	–	1255 ± 3.1
298.15 K, 10000 kPa	–	1265.5 ± 3.1
298.15 K, 10020 kPa	1411.85 ± 2.5	–
298.15 K, 13500 kPa	–	1277.3 ± 3.1
298.15 K, 14980 kPa	1415.45 ± 2.6	–
298.15 K, 16990 kPa	–	1288.9 ± 3.1
298.15 K, 19750 kPa	1418.8 ± 2.8	–
298.15 K, 20000 kPa	–	1298.6 ± 3.1
298.15 K, 25860 kPa	1422.94 ± 2.9	–
298.15 K, 30000 kPa	–	1330.5 ± 3.2
298.15 K, 31480 kPa	1426.64 ± 3	–
298.15 K, 37770 kPa	1430.64 ± 3.2	–
298.15 K, 40000 kPa	–	1360.4 ± 3.2
298.15 K, 44170 kPa	1434.54 ± 3.4	–
298.15 K, 50000 kPa	–	1388.9 ± 3.2
298.15 K, 50750 kPa	1438.46 ± 3.5	–
298.15 K, 59590 kPa	1443.56 ± 3.8	–
298.15 K, 60000 kPa	–	1415.9 ± 3.2
298.15 K, 70000 kPa	–	1441.9 ± 3.2
298.15 K, 80000 kPa	–	1467 ± 3.2
298.15 K, 90000 kPa	–	1491.1 ± 3.2
298.15 K, 100000 kPa	–	1514.5 ± 3.2
298.15 K, 112500 kPa	–	1542.6 ± 3.2
298.15 K, 125000 kPa	–	1569.7 ± 3.2
298.15 K, 137510 kPa	–	1595.7 ± 3.2
298.15 K, 150000 kPa	–	1620.3 ± 3.2
299.15 K, 100 kPa	1403.5 ± 2.3	–
299.15 K, 1830 kPa	1404.78 ± 2.3	–
299.15 K, 10020 kPa	1410.92 ± 2.5	–
299.15 K, 14980 kPa	1414.53 ± 2.6	–
299.15 K, 19750 kPa	1417.87 ± 2.8	–
299.15 K, 25860 kPa	1422.01 ± 2.9	–
299.15 K, 31480 kPa	1425.7 ± 3	–
299.15 K, 37770 kPa	1429.73 ± 3.2	–
299.15 K, 44170 kPa	1433.68 ± 3.4	–
299.15 K, 50750 kPa	1437.64 ± 3.5	–
299.15 K, 59590 kPa	1442.74 ± 3.8	–
300.15 K, 100 kPa	1402.62 ± 2.3	–
300.15 K, 1830 kPa	1403.85 ± 2.3	–
300.15 K, 10020 kPa	1410.01 ± 2.5	–
300.15 K, 14980 kPa	1413.57 ± 2.6	–
300.15 K, 19750 kPa	1416.91 ± 2.8	–
300.15 K, 25860 kPa	1421.12 ± 2.9	–
300.15 K, 31480 kPa	1424.81 ± 3	–
300.15 K, 37770 kPa	1428.87 ± 3.2	–
300.15 K, 44170 kPa	1432.84 ± 3.4	–
300.15 K, 50750 kPa	1436.83 ± 3.5	–
300.15 K, 59590 kPa	1441.99 ± 3.8	–
301.15 K, 100 kPa	1401.81 ± 2.3	–
301.15 K, 1830 kPa	1403.07 ± 2.3	–
301.15 K, 10020 kPa	1409.19 ± 2.5	–
301.15 K, 14980 kPa	1412.71 ± 2.6	–
301.15 K, 19750 kPa	1416.05 ± 2.8	–
301.15 K, 25860 kPa	1420.19 ± 2.9	–
301.15 K, 31480 kPa	1423.9 ± 3	–
301.15 K, 37770 kPa	1427.94 ± 3.2	–
301.15 K, 44170 kPa	1431.88 ± 3.4	–
301.15 K, 50750 kPa	1435.89 ± 3.5	–
301.15 K, 59590 kPa	1441.12 ± 3.7	–
302.15 K, 100 kPa	1400.89 ± 2.3	–
302.15 K, 1830 kPa	1402.16 ± 2.3	–
302.15 K, 10020 kPa	1408.28 ± 2.5	–
302.15 K, 14980 kPa	1411.85 ± 2.6	–
302.15 K, 19750 kPa	1415.2 ± 2.7	–
302.15 K, 25860 kPa	1419.36 ± 2.9	–
302.15 K, 31480 kPa	1423.08 ± 3	–
302.15 K, 37770 kPa	1427.17 ± 3.2	–
302.15 K, 44170 kPa	1431.17 ± 3.3	–
302.15 K, 50750 kPa	1435.18 ± 3.5	–
302.15 K, 59590 kPa	1440.42 ± 3.7	–
303.15 K, 100 kPa	1399.89 ± 2.3	–
303.15 K, 1830 kPa	1401.18 ± 2.3	–
303.15 K, 10020 kPa	1407.27 ± 2.5	–
303.15 K, 14980 kPa	1410.82 ± 2.6	–
303.15 K, 19750 kPa	1414.3 ± 2.7	–
303.15 K, 25860 kPa	1418.46 ± 2.9	–
303.15 K, 31480 kPa	1422.18 ± 3	–
303.15 K, 37770 kPa	1426.25 ± 3.2	–
303.15 K, 44170 kPa	1430.26 ± 3.3	–
303.15 K, 50750 kPa	1434.31 ± 3.5	–
303.15 K, 59590 kPa	1439.59 ± 3.7	–
308.15 K, 100 kPa	1395.34 ± 2.3	–
308.15 K, 500 kPa	–	1209.4 ± 3.1
308.15 K, 1830 kPa	1396.59 ± 2.3	–
308.15 K, 3500 kPa	–	1220.4 ± 3.1
308.15 K, 7000 kPa	–	1233.1 ± 3.1
308.15 K, 10000 kPa	–	1243.7 ± 3.1
308.15 K, 10020 kPa	1402.73 ± 2.5	–
308.15 K, 13500 kPa	–	1255.8 ± 3.1
308.15 K, 14980 kPa	1406.29 ± 2.6	–
308.15 K, 16990 kPa	–	1267.5 ± 3.1
308.15 K, 19750 kPa	1409.65 ± 2.7	–
308.15 K, 20000 kPa	–	1277.5 ± 3.1
308.15 K, 25860 kPa	1413.83 ± 2.9	–
308.15 K, 30000 kPa	–	1310 ± 3.2
308.15 K, 31480 kPa	1417.59 ± 3	–
308.15 K, 37770 kPa	1421.72 ± 3.1	–
308.15 K, 40000 kPa	–	1340.4 ± 3.2
308.15 K, 44170 kPa	1425.82 ± 3.3	–
308.15 K, 50000 kPa	–	1369.1 ± 3.2
308.15 K, 50750 kPa	1429.95 ± 3.5	–
308.15 K, 59590 kPa	1435.35 ± 3.7	–
308.15 K, 60000 kPa	–	1396.7 ± 3.2
308.15 K, 70000 kPa	–	1423.2 ± 3.2
308.15 K, 80000 kPa	–	1448.6 ± 3.2
308.15 K, 90000 kPa	–	1473 ± 3.2
308.15 K, 100000 kPa	–	1496.6 ± 3.2
308.15 K, 112500 kPa	–	1525.2 ± 3.2
308.15 K, 125000 kPa	–	1552.6 ± 3.2
308.15 K, 137510 kPa	–	1579 ± 3.2
308.15 K, 150000 kPa	–	1603.7 ± 3.2
313.15 K, 100 kPa	1390.55 ± 2.2	–
313.15 K, 1830 kPa	1391.88 ± 2.3	–
313.15 K, 10020 kPa	1397.99 ± 2.5	–
313.15 K, 14980 kPa	1401.57 ± 2.6	–
313.15 K, 19750 kPa	1404.95 ± 2.7	–
